Measured values taken from patent US20240343727A1, “PYRIDAZINONE OR PYRIDINONE COMPOUNDS, PREPARATION METHODS AND USES THEREOF” (InventisBio Co., Ltd., priority 2021, published 2024).
Where two headings read alike, the source gives them in different places.

What was measured:
[1] = target: T1, PARP7 (Homo sapiens, UniProt Q7Z3E1); experiment: PARP7 TR-FRET assay (binding, displacement of biotinylated Probe A); conditions: 6 nM PARP7, 2 nM Probe A, 25° C., 30 min
T1 sequence (Q7Z3E1 1-657): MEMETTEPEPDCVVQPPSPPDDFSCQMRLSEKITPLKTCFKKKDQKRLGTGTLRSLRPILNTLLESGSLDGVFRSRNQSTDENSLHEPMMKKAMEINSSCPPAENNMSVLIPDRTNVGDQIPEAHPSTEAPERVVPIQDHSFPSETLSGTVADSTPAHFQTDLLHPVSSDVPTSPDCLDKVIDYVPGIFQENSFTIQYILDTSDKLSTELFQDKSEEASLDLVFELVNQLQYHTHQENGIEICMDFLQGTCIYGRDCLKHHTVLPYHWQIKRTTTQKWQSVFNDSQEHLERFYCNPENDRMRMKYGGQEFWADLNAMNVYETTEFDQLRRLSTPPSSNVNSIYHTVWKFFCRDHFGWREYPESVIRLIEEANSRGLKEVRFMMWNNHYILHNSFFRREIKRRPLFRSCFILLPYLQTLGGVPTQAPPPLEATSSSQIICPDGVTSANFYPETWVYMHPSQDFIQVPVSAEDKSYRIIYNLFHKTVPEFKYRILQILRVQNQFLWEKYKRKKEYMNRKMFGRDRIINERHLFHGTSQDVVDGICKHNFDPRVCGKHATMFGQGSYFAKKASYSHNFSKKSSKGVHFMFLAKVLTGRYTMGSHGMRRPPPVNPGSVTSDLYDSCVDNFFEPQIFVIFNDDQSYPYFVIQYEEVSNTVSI
Method in brief: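 His-tagged PARP7 at 6 nM was preincubated with compound and 2 nM biotinylated Probe A for 30 min at 25° C (HEPES pH 8.0, NaCl, BSA, DTT, Tween20). Europium-streptavidin/ULight-anti-His FRET was read as the 665/615 nm ratio after a further 30 min. IC50 was fitted from % inhibition normalised to vehicle and blank.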

[2] = tested on: NCI-H1373 cells; experiment: Inhibition of cancer cell growth in NCI-H1373 cells (Cell-titer Glo, 6 days); type: cell-based; conditions: read-out: H1373 Cell Proliferation IC50
Method: Biological Assay Example B: Inhibition of cancer cell growth in NCI-H1373 cells by PARP7 inhibitors
NCI-H1373 cells were cultured in RPMI 1640 medium supplemented with 10% fetal bovine serum, 100 U/mL penicillin and 100 ug/mL streptomycin in a 37° C., 5% CO2 incubator. Fifteen hundred cells were seeded into each well of 96-well plate in RPMI1640 medium containing 10% fetal bovine serum and incubated overnight. Serial diluted compounds for each well were added at a final DMSO concentration of 0.5% and a day zero plate was collected for analysis. Compounds were incubated with the cells for 6 days. Cell growth was assessed using Cell-titer Glo reagent (Promega #G^7572). The luminescence signal was collected on Tecan Spark plate reader. Cell growth is determined by correcting for the cell count on day zero. Inhibition rate is calculated with the formula of % inhibition=100*(DMSO control-compounds)/(DMSO control-Blank). Cell growth inhibition IC50 is calculated with the equation of Y-Bottom+ (Top-Bottom)/(1+10^((LogIC50−X) *Hill Slope)).

## COC1CC(Nc2c(Oc3cccc(C(=O)N4CCN(c5ncc(C(F)(F)F)cn5)CC4)c3)n[nH]c(=O)c2C(F)(F)F)C1 (stereo not shown) [Compound 168]
[1]
  IC50: < 100 nM
[2]; Homo sapiens, NCI-H1373, 144 h
  IC50: 100 to 1000 nM

## Cc1c(N2C[C@@H](CC(=O)N3CCN(c4ncc(C(F)(F)F)cn4)CC3)O[C@H](C)C2)n[nH]c(=O)c1C(F)(F)F (single isomer, unassigned) [Compound 43]
[1]
  IC50: < 100 nM
[2]; Homo sapiens, NCI-H1373, 144 h
  IC50: 100 to 1000 nM

## COCCNC(=O)c1ccc2c(c1)N(c1cc(C(F)(F)F)c(=O)[nH]n1)CC(CC(=O)N1CCN(c3ncc(C(F)(F)F)cn3)CC1)O2 (single isomer, unassigned) [Compound 309]
[1]
  IC50: < 100 nM
[2]; Homo sapiens, NCI-H1373, 144 h
  IC50: 100 to 1000 nM

## Cc1c(N2CCOc3ccc(C(=O)N4CCN(c5ncc(C(F)(F)F)cn5)CC4)cc32)n[nH]c(=O)c1C(F)(F)F [Compound 78]
[1]
  IC50: 100 to 1000 nM
[2]; Homo sapiens, NCI-H1373, 144 h
  IC50: 100 to 1000 nM

## O=C(c1cc(Oc2n[nH]c(=O)c(C(F)(F)F)c2N2CC3(CCC3)C2)ccn1)N1CCN(c2ncc(C(F)(F)F)cn2)CC1 [Compound 229]
[1]
  IC50: < 100 nM
[2]; Homo sapiens, NCI-H1373, 144 h
  IC50: < 100 nM

## O=C(CC1CN(c2cc(C(F)(F)F)c(=O)[nH]n2)c2cc(F)ccc2O1)N1CCN(c2ccc(C3CC3)cn2)CC1 (single isomer, unassigned) [Compound 300]
[1]
  IC50: < 100 nM
[2]; Homo sapiens, NCI-H1373, 144 h
  IC50: 100 to 1000 nM

## C[C@@H]1CC[C@@H](CCC(=O)N2CCN(c3ncc(C(F)(F)F)cn3)CC2)N1c1cc(C(F)(F)F)c(=O)[nH]n1 [Compound 156]
[1]
  IC50: < 100 nM
[2]; Homo sapiens, NCI-H1373, 144 h
  IC50: < 100 nM

## C[C@@H]1CN(C(=O)c2cncc(Oc3n[nH]c(=O)c(C(F)(F)F)c3N3CC4(C3)CC(F)(F)C4)c2)CCN1c1ncc(Cl)cn1 [Compound 321]
[1]
  IC50: < 100 nM
[2]; Homo sapiens, NCI-H1373, 144 h
  IC50: < 100 nM

## O=C(CO[C@@H]1CCNc2c1n[nH]c(=O)c2C(F)(F)F)N1CCN(c2ncc(C(F)(F)F)cn2)CC1 (single isomer, unassigned) [Compound 2]
[1]
  IC50: < 100 nM
[2]; Homo sapiens, NCI-H1373, 144 h
  IC50: < 100 nM

## O=C(COC1CCOc2c1n[nH]c(=O)c2Cl)N1CCN(c2ncc(C(F)(F)F)cn2)CC1 (single isomer, unassigned) [Compound 53]
[1]
  IC50: < 100 nM
[2]; Homo sapiens, NCI-H1373, 144 h
  IC50: > 1000 nM

## O=C(CC[C@@H]1CCCN1c1cc(C(F)(F)F)c(=O)[nH]n1)N1CCN(c2ncc(C(F)(F)F)cn2)CC1 [Compound 86]
[1]
  IC50: < 100 nM
[2]; Homo sapiens, NCI-H1373, 144 h
  IC50: < 100 nM

## Cc1c(N2C[C@@H](CC(=O)N3CCN(c4ncc(C(F)(F)F)cn4)CC3)O[C@@H](C)C2)n[nH]c(=O)c1C(F)(F)F (stereo in doubt) [Compound 40]
[1]
  IC50: < 100 nM
[2]; Homo sapiens, NCI-H1373, 144 h
  IC50: 100 to 1000 nM

## N#Cc1cnc(N2CCN(C(=O)c3cccc(Oc4n[nH]c(=O)c(C(F)(F)F)c4N4CC5(CCC5)C4)c3)CC2)nc1 [Compound 179]
[1]
  IC50: < 100 nM
[2]; Homo sapiens, NCI-H1373, 144 h
  IC50: < 100 nM

## N#Cc1cnc(N2CCN(C(=O)c3cncc(Oc4n[nH]c(=O)c(C(F)(F)F)c4N4CC5(C4)CC(F)(F)C5)c3)CC2)nc1 [Compound 236]
[1]
  IC50: < 100 nM
[2]; Homo sapiens, NCI-H1373, 144 h
  IC50: 100 to 1000 nM

## Cc1c(Oc2cc(C(=O)N3CCN(c4ncc(C(F)(F)F)cn4)CC3)ccc2F)n[nH]c(=O)c1C(F)(F)F [Compound 63]
[1]
  IC50: < 100 nM
[2]; Homo sapiens, NCI-H1373, 144 h
  IC50: 100 to 1000 nM

## O=C(COC1CCOc2c1n[nH]c(=O)c2Cl)N1CCN(c2ncc(C(F)(F)F)cn2)CC1 (single isomer, unassigned) [Compound 54]
[1]
  IC50: < 100 nM
[2]
  IC50: > 1000 nM

## C[C@@H]1CN(C(=O)c2cc(Oc3n[nH]c(=O)c(C(F)(F)F)c3N3CC4(CCC4)C3)ccn2)CCN1c1cnc(C(F)(F)F)cn1 [Compound 353]
[1]
  IC50: < 100 nM
[2]; Homo sapiens, NCI-H1373, 144 h
  IC50: < 100 nM

## O=C(c1cccc(Oc2n[nH]c(=O)c(C(F)(F)F)c2N2CC3(CCC3)C2)c1)N1CCN(c2ncc(Cl)cn2)CC1 [Compound 199]
[1]
  IC50: < 100 nM
[2]; Homo sapiens, NCI-H1373, 144 h
  IC50: < 100 nM

## O=C(C[C@@H]1CN(c2cc(C(F)(F)F)c(=O)[nH]n2)c2ccccc2O1)N1CCN(c2ncc(C(F)(F)F)cn2)CC1 [Compound 34]
[1]
  IC50: < 100 nM
[2]; Homo sapiens, NCI-H1373, 144 h
  IC50: < 100 nM

## N#Cc1cnc(N2CCN(C(=O)CC3CN(c4cc(C(F)(F)F)c(=O)[nH]n4)c4cc(C(F)F)ccc4O3)CC2)nc1 (single isomer, unassigned) [Compound 140]
[1]
  IC50: < 100 nM
[2]
  IC50: > 1000 nM

## CC(C)(O)c1cnc(N2CCN(C(=O)c3cccc(Oc4n[nH]c(=O)c(C(F)(F)F)c4N4CC5(CCC5)C4)c3)CC2)nc1 [Compound 349]
[1]
  IC50: < 100 nM
[2]; Homo sapiens, NCI-H1373, 144 h
  IC50: < 100 nM

## O=C(CC1CN(c2cc(C(F)(F)F)c(=O)[nH]n2)CCO1)N1CCN(c2ncc(C(F)(F)F)cn2)CC1 (single isomer, unassigned) [Compound 32]
[1]
  IC50: < 100 nM
[2]; Homo sapiens, NCI-H1373, 144 h
  IC50: 100 to 1000 nM

## O=C(C[C@H]1CN(c2cc(C(F)(F)F)c(=O)[nH]n2)c2ccccc2O1)N1CCN(c2ncc(C(F)(F)F)cn2)CC1 [Compound 35]
[1]
  IC50: 100 to 1000 nM
[2]; Homo sapiens, NCI-H1373, 144 h
  IC50: > 1000 nM

## Cc1c(Oc2ccc(Cl)c(C(=O)N3CCN(c4ncc(C(F)(F)F)cn4)CC3)c2)n[nH]c(=O)c1C(F)(F)F [Compound 26]
[1]
  IC50: < 100 nM
[2]; Homo sapiens, NCI-H1373, 144 h
  IC50: > 1000 nM

## COC[C@@H]1C[C@@H](OCC(=O)N2CCN(c3ncc(C(F)(F)F)cn3)CC2)c2n[nH]c(=O)c(C(F)(F)F)c2O1 [Compound 57]
[1]
  IC50: < 100 nM
[2]; Homo sapiens, NCI-H1373, 144 h
  IC50: < 100 nM

## O=C(c1cccc(Oc2cc(C(F)(F)F)c(=O)[nH]n2)c1)N1CCN(c2ncc(C(F)(F)F)cn2)CC1 [Compound 16]
[1]
  IC50: < 100 nM
[2]; Homo sapiens, NCI-H1373, 144 h
  IC50: > 1000 nM

## N#Cc1ccc2c(c1)N(c1cc(C(F)(F)F)c(=O)[nH]n1)CC(CC(=O)N1CCN(c3ncc(C4CC4)cn3)CC1)O2 (single isomer, unassigned) [Compound 316]
[1]
  IC50: < 100 nM
[2]; Homo sapiens, NCI-H1373, 144 h
  IC50: < 100 nM

## N#Cc1cnc(N2CCN(C(=O)CC3CN(c4cc(C(F)(F)F)c(=O)[nH]n4)c4cc(C(F)F)ccc4O3)CC2)nc1 (single isomer, unassigned) [Compound 138]
[1]
  IC50: < 100 nM
[2]
  IC50: < 100 nM

## O=C(COC1CCOc2c1n[nH]c(=O)c2Br)N1CCN(c2ncc(C(F)(F)F)cn2)CC1 (single isomer, unassigned) [Compound 8]
[1]
  IC50: < 100 nM
[2]; Homo sapiens, NCI-H1373, 144 h
  IC50: 100 to 1000 nM

## O=C(CC1CN(c2n[nH]c(=O)c3cc(F)ccc23)CCO1)N1CCN(c2ncc(C(F)(F)F)cn2)CC1 (single isomer, unassigned) [Compound 50]
[1]
  IC50: < 100 nM
[2]; Homo sapiens, NCI-H1373, 144 h
  IC50: 100 to 1000 nM

## O=C(CC[C@@H]1CCCN1c1n[nH]c(=O)c2ccccc12)N1CCN(c2ncc(C(F)(F)F)cn2)CC1 [Compound 48]
[1]
  IC50: < 100 nM
[2]; Homo sapiens, NCI-H1373, 144 h
  IC50: < 100 nM

## O=C(c1cc(Oc2n[nH]c(=O)c(C(F)(F)F)c2N2CC3(C2)CC(F)(F)C3)ccn1)N1CCN(c2cnc(C(F)(F)F)cn2)CC1 [Compound 331]
[1]
  IC50: < 100 nM
[2]; Homo sapiens, NCI-H1373, 144 h
  IC50: < 100 nM

## CNC(=O)c1ccc2c(c1)N(c1cc(C(F)(F)F)c(=O)[nH]n1)CC(CC(=O)N1CCN(c3ncc(C(F)(F)F)cn3)CC1)O2 (single isomer, unassigned) [Compound 324]
[1]
  IC50: < 100 nM
[2]; Homo sapiens, NCI-H1373, 144 h
  IC50: > 1000 nM

## Cc1ccc2c(=O)[nH]nc(N3CCOC(CC(=O)N4CCN(c5ncc(C(F)(F)F)cn5)CC4)C3)c2c1 (single isomer, unassigned) [Compound 123]
[1]
  IC50: < 100 nM
[2]; Homo sapiens, NCI-H1373, 144 h
  IC50: > 1000 nM

## CN1C[C@@H](OCC(=O)N2CCN(c3ncc(C(F)(F)F)cn3)CC2)c2n[nH]c(=O)c3cc(F)cc1c23 (single isomer, unassigned) [Compound 14]
[1]
  IC50: < 100 nM
[2]; Homo sapiens, NCI-H1373, 144 h
  IC50: < 100 nM
